Data as given in patent US20240150345A1, “GCN2 MODULATING COMPOUNDS AND USES THEREOF” (HiberCell, Inc., priority 2021, published 2024).

Biological target: T1, GCN2 (Homo sapiens, UniProt Q9P2K8)
T1 construct: purchased Carma Biosciences (so in the source)
Assay: TR-FRET biochemical assay for inhibition of GCN2 activity
Details: 2 nM GCN2, 100 nM GFP-eIF2α, 150 μM ATP, 1.5 hours at 25° C.
Protocol: Exemplary compounds from the above Examples were tested for ability to inhibit GCN2 activity using a time resolved fluorescence energy transfer (TR-FRET) assay. Assay procedures and results are described below for Examples 12-105.
GCN2 protein was obtained from Carma Biosciences (cat #05-153). The protein was diluted in assay buffer (ThermoFisher Scientific, #PV6135), 2 mM dithiothreitol (DTT), to obtain a final concentration of 2 nM and 5 μL was plated in a 384-well white assay plate. Test compounds were serially diluted to 11 concentrations by 3-fold dilution in DMS0 and 10 nL of stock was plated into 384 well white assay plate. DMS0 was used as a vehicle control. GFP-eIF2α protein was obtained from ThermoFisher (cat #PV4809). The protein was diluted in assay buffer to a 2× concentration of 200 nM along with 300 μM ATP (final concentration of 100 nM GFP-eIF2α and 150 μM ATP) in the presence of 2 mM DTT and a […] was added to each well containing the GCN2 protein and test compound. The plate was incubated in the dark at 25° C. for 1.5 hours, shaking at 1250 rpm. Tb-anti P-eIF2α (ThermoFisher cat #PV4815) was diluted to a to a concentration of 1 nM in TR-FRET Dilution Buffer (ThermoFisher cat #PV3574). 10 μL of the Tb-anti P-eIF2a solution was added to the TR-FRET reaction. The plate was incubated in the dark for 2 h at 25° C. shaking at 600 rpm. The FRET signal from the plate was read on a Envision (PerkinElmer) plate reader: • Label 1: Excitation: 340 nm, bandwidth 30 nm; Emission: 495 nm, bandwidth 10 nm. Lag time: 100 μsec. Integration time: 400 μsec. Flashes: 30. • Label 2: Excitation: 340 nm, bandwidth 30 nm; Emission: 520 nm, bandwidth 25 nm. Lag time: 100 μsec. Integration time: 400 μsec. Flashes: 30
The data were analyzed using GraphPad Prism employing a 4-parameter sigmoidal curve fit.

T1 sequence (Q9P2K8 whole entry): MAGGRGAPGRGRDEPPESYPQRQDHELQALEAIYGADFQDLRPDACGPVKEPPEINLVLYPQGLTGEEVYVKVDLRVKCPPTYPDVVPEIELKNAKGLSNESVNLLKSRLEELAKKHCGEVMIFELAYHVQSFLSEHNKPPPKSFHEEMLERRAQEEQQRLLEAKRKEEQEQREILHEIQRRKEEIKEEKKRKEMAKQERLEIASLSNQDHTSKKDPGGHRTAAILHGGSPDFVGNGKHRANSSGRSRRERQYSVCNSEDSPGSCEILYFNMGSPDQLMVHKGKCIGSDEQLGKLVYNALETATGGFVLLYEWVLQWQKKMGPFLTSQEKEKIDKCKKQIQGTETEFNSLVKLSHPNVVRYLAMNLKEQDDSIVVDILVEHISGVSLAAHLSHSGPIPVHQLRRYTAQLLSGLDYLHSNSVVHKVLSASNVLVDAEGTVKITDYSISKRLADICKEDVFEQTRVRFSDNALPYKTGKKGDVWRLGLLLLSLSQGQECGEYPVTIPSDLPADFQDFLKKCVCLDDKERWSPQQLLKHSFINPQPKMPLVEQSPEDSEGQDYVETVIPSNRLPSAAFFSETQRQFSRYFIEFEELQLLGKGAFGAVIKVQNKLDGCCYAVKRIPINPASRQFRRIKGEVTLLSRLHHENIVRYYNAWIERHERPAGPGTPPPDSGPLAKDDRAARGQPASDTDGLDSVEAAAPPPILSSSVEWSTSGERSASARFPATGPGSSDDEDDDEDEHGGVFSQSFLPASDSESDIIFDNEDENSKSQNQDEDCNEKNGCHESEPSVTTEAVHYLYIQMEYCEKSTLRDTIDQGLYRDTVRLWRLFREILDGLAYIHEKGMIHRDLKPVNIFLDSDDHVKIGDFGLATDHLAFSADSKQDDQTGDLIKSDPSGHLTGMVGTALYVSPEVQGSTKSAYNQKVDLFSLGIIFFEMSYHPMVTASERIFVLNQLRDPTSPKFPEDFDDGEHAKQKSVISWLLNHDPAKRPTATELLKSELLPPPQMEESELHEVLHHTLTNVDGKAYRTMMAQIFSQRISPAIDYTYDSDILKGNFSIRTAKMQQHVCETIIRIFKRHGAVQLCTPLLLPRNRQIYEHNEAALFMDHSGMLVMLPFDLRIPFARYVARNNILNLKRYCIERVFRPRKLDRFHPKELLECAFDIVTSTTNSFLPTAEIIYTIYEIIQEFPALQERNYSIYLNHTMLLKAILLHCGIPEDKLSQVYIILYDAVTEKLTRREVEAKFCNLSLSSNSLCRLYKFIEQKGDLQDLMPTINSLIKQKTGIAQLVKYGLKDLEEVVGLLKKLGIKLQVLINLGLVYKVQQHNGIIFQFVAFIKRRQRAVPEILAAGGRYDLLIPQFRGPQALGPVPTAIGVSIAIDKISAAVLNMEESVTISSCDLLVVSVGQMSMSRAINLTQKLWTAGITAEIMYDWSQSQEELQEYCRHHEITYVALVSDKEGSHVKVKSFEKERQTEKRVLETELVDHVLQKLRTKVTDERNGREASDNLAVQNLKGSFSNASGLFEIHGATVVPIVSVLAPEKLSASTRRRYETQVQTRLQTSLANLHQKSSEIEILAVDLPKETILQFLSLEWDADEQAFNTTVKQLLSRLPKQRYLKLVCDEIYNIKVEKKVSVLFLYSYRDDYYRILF

| Compound | IC50 |
| --- | --- |
| COc1ncc(C#N)cc1S(=O)(=O)Nc1ccc(F)c(COc2cnc3[nH]nc(C(C)C)c3c2)c1F [Compound 55, 5-cyano-N-[2,4-difluoro-3-[([3-isopropyl-1H-pyrazolo[3,4-b]pyridin-5-yl]oxy)methyl]phenyl]-2-methoxypyridine-3-sulfonamide] | 50 to 500 nM |
| COc1ncc(F)cc1S(=O)(=O)Nc1ccc(F)c(COc2cnc3[nH]nc(C)c3c2-c2ccccn2)c1F [Compound 90, N-[2,4-difluoro-3-([[3-methyl-4-(pyridin-2-yl)-1H-pyrazolo[3,4-b]pyridin-5-yl]oxy]methyl)phenyl]-5-fluoro-2-methoxypyridine-3-sulfonamide] | 50 to 500 nM |
| Cc1ncc(F)cc1S(=O)(=O)Nc1ccc(F)c(OCc2cnc3[nH]nc(C)c3c2)c1F [Compound 51, N-[2,4-difluoro-3-([3-methyl-1H-pyrazolo[3,4-b]pyridin-5-yl]methoxy)phenyl]-5-fluoro-2-methylpyridine-3-sulfonamide] | 50 to 500 nM |
| CCn1ncc2ncc(CCc3c(F)ccc(NS(=O)(=O)c4cc(F)cnc4OC)c3F)cc21 [Compound 34, N-[3-(2-[1-ethylpyrazolo[4,3-b]pyridin-6-yl]ethyl)-2,4-difluorophenyl]-5-fluoro-2-methoxypyridine-3-sulfonamide] | < 50 nM |
| COc1ncc(C#N)cc1S(=O)(=O)Nc1ccc(F)c(COc2cnc3[nH]ncc3c2)c1F [Compound 26, 5-cyano-N-[2,4-difluoro-3-([1H-pyrazolo[3,4-b]pyridin-5-yloxy]methyl)phenyl]-2-methoxypyridine-3-sulfonamide] | < 50 nM |
| COc1ncc(F)cc1S(=O)(=O)Nc1ccnc(COc2cnc3[nH]nc(C)c3c2)c1F [Compound 63, 5-fluoro-N-[3-fluoro-2-[([3-methyl-1H-pyrazolo[3,4-b]pyridin-5-yl]oxy)methyl]pyridin-4-yl]-2-methoxypyridine-3-sulfonamide] | 50 to 500 nM |
| COc1ncc(Cl)cc1S(=O)(=O)Nc1ccc(F)c(CCc2cc3cn[nH]c3cn2)c1F [Compound 13, 5-chloro-N-[2,4-difluoro-3-(2-[1H-pyrazolo[3,4-c]pyridin-5-yl]ethyl)phenyl]-2-methoxypyridine-3-sulfonamide] | > 1000 nM |
| COc1ncc(Cl)cc1S(=O)(=O)Nc1ccc(F)c(NCc2cnc3[nH]nc(C)c3c2)c1F [Compound 58, 5-chloro-N-[2,4-difluoro-3-[([3-methyl-1H-pyrazolo[3,4-b]pyridin-5-yl]methyl)amino]phenyl]-2-methoxypyridine-3-sulfonamide] | < 50 nM |
| COc1ncc(F)cc1S(=O)(=O)Nc1ccc(F)c(COc2cnc3[nH]nc(C)c3c2)c1F [Compound 2, N-[2,4-difluoro-3-[([3-methyl-1H-pyrazolo[3,4-b]pyridin-5-yl]oxy)methyl]phenyl]-5-fluoro-2-methoxypyridine-3-sulfonamide] | < 50 nM |
| COc1ncc(F)cc1S(=O)(=O)Nc1ccc(F)c(COc2cnc3[nH]nc(C)c3c2)n1 [Compound 67, 5-fluoro-N-[5-fluoro-6-[([3-methyl-1H-pyrazolo[3,4-b]pyridin-5-yl]oxy)methyl]pyridine-2-yl]-2-methoxypyridine-3-sulfonamide] | > 1000 nM |
| Cc1ncc(F)cc1S(=O)(=O)Nc1ccc(F)c(CCc2cnc3[nH]ncc3c2)c1F [Compound 9, N-(3-(2-(1H-pyrazolo[3,4-b]pyridin-5-yl)ethyl)-2,4-difluorophenyl)-5-fluoro-2-methylpyridine-3-sulfonamide] | < 50 nM |
| COc1ncc(F)cc1S(=O)(=O)Nc1ccc(F)c(COc2cnc3[nH]nc(C)c3c2-c2ccncc2)c1F [Compound 87, N-[2,4-difluoro-3-([[3-methyl-4-(pyridin-4-yl)-1H-pyrazolo[3,4-b]pyridin-5-yl]oxy]methyl)phenyl]-5-fluoro-2-methoxypyridine-3-sulfonamide] | 50 to 500 nM |
| COc1ncc(F)cc1S(=O)(=O)Nc1ccc(F)c(COc2cnc3[nH]nc(C(C)C)c3c2)c1F [Compound 52, N-[2,4-difluoro-3-[([3-isopropyl-1H-pyrazolo[3,4-b]pyridin-5-yl]oxy)methyl]phenyl]-5-fluoro-2-methoxypyridine-3-sulfonamide] | < 50 nM |
| COc1ncc(F)cc1S(=O)(=O)Nc1ncc(F)c(COc2cnc3[nH]nc(C)c3c2)c1Cl [Compound 66, N-[3-chloro-5-fluoro-4-[([3-methyl-1H-pyrazolo[3,4-b]pyridin-5-yl]oxy)methyl]pyridin-2-yl]-5-fluoro-2-methoxypyridine-3-sulfonamide] | < 50 nM |
| COc1ncc(C#N)cc1S(=O)(=O)Nc1ccc(F)c(OCc2cnc3[nH]nc(C)c3c2)c1F [Compound 48, 5-cyano-N-(2,4-difluoro-3-((3-methyl-1H-pyrazolo[3,4-b]pyridin-5-yl)methoxy)phenyl)-2-methoxypyridine-3-sulfonamide] | 50 to 500 nM |
| COc1ncc(F)cc1S(=O)(=O)Nc1ccc(F)c(COc2cnc3[nH]nc(C)c3c2C2CC2)c1F [Compound 86, N-[3-[([4-cyclopropyl-3-methyl-1H-Pyrazolo[3,4-b]pyridin-5-yl]oxy)methyl]-2,4-difluorophenyl]-5-fluoro-2-methoxypyridine-3-sulfonamide] | 50 to 500 nM |
| COc1ncc(Cl)cc1S(=O)(=O)Nc1ccc(F)c(CCc2cnc3cnn(C)c3c2)c1F [Compound 18, 5-chloro-N-[2,4-difluoro-3-(2-[1-methylpyrazolo[4,3-b]pyridin-6-yl]ethyl)phenyl]-2-methoxypyridine-3-sulfonamide] | < 50 nM |
| COc1ncc(F)cc1S(=O)(=O)Nc1ccc(F)c(COc2cnc3c(c2)C2(CC2)C(=O)N3)c1F [Compound 72, N-[2,4-difluoro-3-([2-oxo-1H-spiro[cyclopropane-1,3-pyrrolo[2,3-b]pyridin]-5-yloxy]methyl)phenyl]-5-fluoro-2-methoxypyridine-3-sulfonamide] | < 50 nM |
| COc1ncc(Cl)cc1S(=O)(=O)Nc1ncc(F)c(COc2cnc3[nH]nc(C)c3c2)c1F [Compound 65, 5-chloro-N-[3,5-difluoro-4-[([3-methyl-1H-pyrazolo[3,4-b]pyridin-5-yl]oxy)methyl]pyridin-2-yl]-2-methoxypyridine-3-sulfonamide] | < 50 nM |
| Cc1ncc(F)cc1S(=O)(=O)Nc1ccc(F)c(NCc2cnc3[nH]nc(C)c3c2)c1F [Compound 59, N-[2,4-difluoro-3-[([3-methyl-1H-pyrazolo[3,4-b]pyridin-5-yl]methyl)amino]phenyl]-5-fluoro-2-methylpyridine-3-sulfonamide] | 50 to 500 nM |
| COc1ncc(F)cc1S(=O)(=O)Nc1ccc(F)c(COc2cnc3[nH]nc(C)c3c2N2CCCCC2)c1F [Compound 94, N-(2,4-difluoro-3-(((3-methyl-4-(piperidin-1-yl)-1H-pyrazolo[3,4-b]pyridin-5-yl)oxy)methyl)phenyl)-5-fluoro-2-methoxypyridine-3-sulfonamide] | 50 to 500 nM |
| COc1ncc(F)cc1S(=O)(=O)Nc1ccc(F)c(COc2cnc3[nH]nc(C)c3c2-c2cccnc2)c1F [Compound 91, N-[2,4-difluoro-3-([[3-methyl-4-(pyridin-3-yl)-1H-pyrazolo[3,4-b]pyridin-5-yl]oxy]methyl)phenyl]-5-fluoro-2-methoxypyridine-3-sulfonamide] | 50 to 500 nM |
| COc1ncc(F)cc1S(=O)(=O)Nc1ccc(F)c(COc2cnc3[nH]nc(CCF)c3c2)c1F [Compound 76, N-[2,4-difluoro-3-([[3-(2-fluoroethyl)-1H-pyrazolo[3,4-b]pyridin-5-yl]oxy]methyl)phenyl]-5-fluoro-2-methoxypyridine-3-sulfonamide] | < 50 nM |
| COc1ncc(Cl)cc1S(=O)(=O)Nc1ccc(F)c(CCc2ccc3[nH]ncc3n2)c1F [Compound 11, 5-chloro-N-[2,4-difluoro-3-(2-[1H-pyrazolo[4,3-b]pyridin-5-yl]ethyl)phenyl]-2-methoxypyridine-3-sulfonamide] | > 1000 nM |
| COc1ncc(Cl)cc1S(=O)(=O)Nc1ccc(F)c(COc2cnc3[nH]ncc3c2OC)c1F [Compound 24, 5-chloro-N-[2,4-difluoro-3-[([4-methoxy-1H-pyrazolo[3,4-b]pyridin-5-yl]oxy)methyl]phenyl]-2-methoxypyridine-3-sulfonamide] | < 50 nM |
| COc1ncc(F)cc1S(=O)(=O)Nc1ccc(F)c(COc2cnc3[nH]nc(CC(F)(F)F)c3c2)c1F [Compound 80, N-[2,4-difluoro-3-([[3-(2,2,2-trifluoroethyl)-1H-pyrazolo[3,4-b]pyridin-5-yl]oxy]methyl)phenyl]-5-fluoro-2-methoxypyridine-3-sulfonamide] | < 50 nM |
| COc1ncc(Cl)cc1S(=O)(=O)Nc1ccc(F)c(C(C)Oc2cnc3[nH]ncc3c2)c1F (stereo not drawn) [Compound 25, 5-chloro-N-[2,4-difluoro-3-(1-[1H-pyrazolo[3,4-b]pyridin-5-yloxy]ethyl)phenyl]-2-methoxypyridine-3-sulfonamide] | 500 to 1000 nM |
